Like-named read-outs stand apart in the source and are kept apart here.

The text below walks through data of patent US9266835B2, “Quinoline derivatives useful as CB-1 inverse agonists” (JANSSEN PHARMACEUTICA NV, priority 2014, dated 2016).

Data set [1] has as its target Human CB2R (Cannabinoid receptor 2) (Homo sapiens (Human), UniProt P34972). Description: CB-2 in vitro cAMP assay (HTRF), inverse agonism. The following applies: mean where tested more than once. In kind it is cell-based. For orientation: Changes in cAMP serve as a functional read-out for many G protein-coupled receptors.
A short description of data set [2]: Chronic DIO Mouse, second study: plasma and brain concentrations. In kind it is in vivo. The following applies: DIO mice; for concentration at 2 h: male, mouse, oral. As for the experimental part: Male 14-20-week old diet-induced obese mice were ordered from Taconic. Mice were started on a 60% fat diet (D12492, Research Diets, New Brunswick, N.J.) at 6 weeks of age. Mice were single-housed.
Test compounds were formulated in 10% PEG400 and 10% solutol. Test compounds were administered by oral gavage (5 ml kg^−1).
The test compound was formulated in 10% PEG400 and 10% solutol. […] At the end of the experiment, the mice were euthanized and blood and tissues were collected.
In a second study, Compound #44 was tested according to the procedure as described above, with results as listed in Tables BIO-5A through 5G, below.

A short description of data set [3]: Mouse Fast PK/BBB (plasma and brain concentration). In kind it is in vivo. The following applies: male, C57bl/6j, brain, oral, N=3 (dose given as 30 mg/kg and 20 mg/kg), read-out: BRAIN Mean Conc. ± Std. Dev.

Human CB2R (Cannabinoid receptor 2), sequence (P34972 whole entry): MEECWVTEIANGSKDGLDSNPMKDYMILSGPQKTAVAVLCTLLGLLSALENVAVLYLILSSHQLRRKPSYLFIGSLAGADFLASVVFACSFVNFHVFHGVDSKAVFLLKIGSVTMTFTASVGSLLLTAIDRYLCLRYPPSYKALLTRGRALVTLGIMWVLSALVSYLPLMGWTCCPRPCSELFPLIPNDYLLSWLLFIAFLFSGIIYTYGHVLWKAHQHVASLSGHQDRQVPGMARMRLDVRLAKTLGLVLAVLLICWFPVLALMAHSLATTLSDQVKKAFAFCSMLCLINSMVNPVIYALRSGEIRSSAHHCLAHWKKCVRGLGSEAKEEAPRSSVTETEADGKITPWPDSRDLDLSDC

As usually defined, the EC50 is the concentration needed to bring the measured effect to its halfway point. Lower therefore signals greater potency. Molecule `O=c1cc(NC2CCN(S(=O)(=O)C(F)(F)F)CC2)c2cc(C(c3ccc(Cl)cc3)c3ccc(Cl)cc3)ccc2[nH]1` [Compound #44, 6-(bis(4-chlorophenyl)methyl)-4-(1-(trifluoromethylsulfonyl)piperidin-4-ylamino)quinolin-2(1H)-one] had an EC50 in data set [1] of 5.23 µM. In addition, the “Brain concentration (Std Dev)” value in data set [2] (0.3 mg/kg, Day 2, 2 hours post dose) was “BLOQ*”; in data set [2] (0.3 mg/kg, Day 23, 2 hours post dose), “BLOQ**”; in data set [2] (1 mg/kg, Day 2, 2 hours post dose), “BLOQ*”; in data set [2] (3 mg/kg, Day 2, 2 hours post dose), “BLOQ*”. The concentration at 2 h in data set [2] (brain, 1 mg/kg, 1 mg/kg, Day 23, 2 hours post dose, read-out: Brain concentration (Std Dev)) came to 36.8 ng/g; in data set [2] (brain, 3 mg/kg, 3 mg/kg, Day 23, 2 hours post dose, read-out: Brain concentration (Std Dev)) it was 100 ng/g; in data set [2] (brain, 10 mg/kg, 10 mg/kg, Day 2, 2 hours post dose, read-out: Brain concentration (Std Dev)) it was 62.3 ng/g; in data set [2] (brain, 10 mg/kg, 10 mg/kg, Day 23, 2 hours post dose, read-out: Brain concentration (Std Dev)), 201 ng/g; in data set [2] (plasma, 0.3 mg/kg, 0.3 mg/kg, Day 2, 2 hours post dose, read-out: Plasma concentration (Std Dev)), 61.3 ng/mL; in data set [2] (plasma, 0.3 mg/kg, 0.3 mg/kg, Day 23, 2 hours post dose, read-out: Plasma concentration (Std Dev)), 192 ng/mL. The concentration at 2 h amounted to 310 ng/mL in data set [2] (plasma, 1 mg/kg, 1 mg/kg, Day 2, 2 hours post dose, read-out: Plasma concentration (Std Dev)); 515 ng/mL in data set [2] (plasma, 1 mg/kg, 1 mg/kg, Day 23, 2 hours post dose, read-out: Plasma concentration (Std Dev)); 759 ng/mL in data set [2] (plasma, 3 mg/kg, 3 mg/kg, Day 2, 2 hours post dose, read-out: Plasma concentration (Std Dev)); 1560 ng/mL in data set [2] (plasma, 3 mg/kg, 3 mg/kg, Day 23, 2 hours post dose, read-out: Plasma concentration (Std Dev)); 2490 ng/mL in data set [2] (plasma, 10 mg/kg, 10 mg/kg, Day 2, 2 hours post dose, read-out: Plasma concentration (Std Dev)); 5280 ng/mL in data set [2] (plasma, 10 mg/kg, 10 mg/kg, Day 23, 2 hours post dose, read-out: Plasma concentration (Std Dev)). Besides, in data set [3], the concentration at 1 h was determined as 7.62 ± 2.28 ng/mL.
